Measurements taken from US12648944B2, “Masitinib for the treatment of castrate-resistant prostate cancer” (AB SCIENCE, priority 2021, dated 2026).

Tested on: first line metastatic castrate-resistant prostate cancer (mCRPC)
Test: Phase 3 randomized double blind placebo-controlled study of masitinib in combination with docetaxel (+ prednisone), progression-free survival
Type: in vivo, human
Settings: for Median progression-free survival (PFS): masitinib 6 mg/kg/day + docetaxel + prednisone; for Hazard Ratio / Risk Benefit: masitinib vs placebo, each + docetaxel + prednisone
Protocol: A prospective, multicenter, randomized, double blind, placebo-controlled, 2-parallel groups, phase 3 study was conducted to assess the efficacy and safety of masitinib in combination with docetaxel as compared to placebo in combination with docetaxel in first line metastatic castrate-resistant prostate cancer (mCRPC).
The objective of the study was to assess the efficacy and safety of masitinib in combination with docetaxel as compared to docetaxel in combination with placebo in first line metastatic castrate-resistant prostate cancer (mCRPC). Efficacy was assessed based on the progression-free survival (PFS), measured in months.
The patients recruited in the study consist of adult males suffering from prostate cancer who progressed to develop castration-resistant prostate cancer (CRPC) after castration treatment (reduction of androgens (e.g., testosterone, dihydrotestosterone (DHT)) by chemical or surgical means). These patients are considered to be patients in the first line metastatic castration-resistant prostate cancer (mCRPC).
The patients recruited in the study were randomized in two groups with a ratio 1:1: • Group 1: masitinib (6 mg/kg/day)+docetaxel (75 mg/m^2 6 cycles—8 or 10 cycles possible)+prednisone according to usual practice; • Group 2: placebo+docetaxel (75 mg/m^2 6 cycles—8 or 10 cycles possible)+prednisone according to usual practice.
Docetaxel was combined with prednisone as usual practice.
Patients were centrally randomized to one of the two treatment groups by IWRS (Interactive Web Response System) according to minimization method.
Inclusion criteria were: • Patient aged≥18 years old, with histologically or cytologically confirmed metastatic castrate-resistant prostate cancer (medical or surgical castration: androgens deprivation by GnRH agonist or antagonist or patient with surgical castration; hormonal castration confirmed biologically (testosterone<0.5 ng/ml) with one of the following criteria: • If surgical castration is done than there is no requirement to perform testosterone test. • Pre-treated with abiraterone with progressed disease documented, OR • With indication for initiating docetaxel administration (e.g., widespread visceral disease or rapidly progressive disease). • Patient with evidence of progressive metastatic disease. Disease progression at trial enrolment is based on progression in at least one variable as described in the Prostate Cancer Clinical Trials Working Group (PCWG2) definition of response and progression for disease manifestations in prostate cancer (Scher et al. J Clin Oncol. 2008; 26:1148-1159):
• Patient with ECOG≤1 • Patient with adequate organ function: […]

[1] = Halabi prognosis score H > 15 at baseline
[2] = Halabi prognosis score H > 16 at baseline
[3] = Halabi prognosis score H > 17 at baseline
[4] = Halabi prognosis score H > 18 at baseline
[5] = Halabi prognosis score H > 19 at baseline
[6] = Halabi prognosis score H > 20 at baseline
[7] = Halabi prognosis score H > 21 at baseline
[8] = Halabi prognosis score H > 22 at baseline
[9] = Halabi prognosis score H > 27 at baseline
[10] = Halabi prognosis score H > 33 at baseline
[11] = Halabi prognosis score H ≤ 15 at baseline
[12] = Halabi prognosis score H ≤ 16 at baseline
[13] = Halabi prognosis score H ≤ 17 at baseline
[14] = Halabi prognosis score H ≤ 18 at baseline
[15] = Halabi prognosis score H ≤ 19 at baseline
[16] = Halabi prognosis score H ≤ 20 at baseline
[17] = Halabi prognosis score H ≤ 21 at baseline
[18] = Halabi prognosis score H ≤ 22 at baseline
[19] = Halabi prognosis score H ≤ 27 at baseline
[20] = Halabi prognosis score H ≤ 33 at baseline
[21] = baseline ALP > 250 IU/L and H > 18
[22] = baseline ALP > 250 IU/L and H > 19
[23] = baseline ALP > 250 IU/L and H > 20
[24] = baseline ALP > 250 IU/L and H > 21
[25] = baseline ALP > 250 IU/L and H > 22
[26] = baseline ALP > 250 IU/L and H ≤ 20
[27] = baseline ALP > 250 IU/L and H ≤ 21
[28] = baseline ALP > 250 IU/L and H ≤ 22
[29] = baseline ALP equal to or lower than 100 IU/L and H equal to or lower than 18
[30] = baseline ALP equal to or lower than 150 IU/L and H equal to or lower than 18
[31] = baseline ALP equal to or lower than 200 IU/L and H equal to or lower than 18
[32] = baseline ALP ≤ 250 IU/L and H < 21
[33] = baseline ALP ≤ 250 IU/L and H < 22
[34] = baseline ALP ≤ 250 IU/L and H > 18
[35] = baseline ALP ≤ 250 IU/L and H > 19
[36] = baseline ALP ≤ 250 IU/L and H > 20
[37] = baseline ALP ≤ 250 IU/L and H > 21
[38] = baseline ALP ≤ 250 IU/L and H > 22
[39] = baseline ALP ≤ 250 IU/L and H ≤ 18
[40] = baseline ALP ≤ 250 IU/L and H ≤ 19
[41] = baseline ALP ≤ 250 IU/L and H ≤ 20

With `Cc1ccc(NC(=O)c2ccc(CN3CCN(C)CC3)cc2)cc1Nc1nc(-c2cccnc2)cs1` [MASITINIB, 4-(4-methylpiperazin-1-ylmethyl)-N-[4-methyl-3-(4-pyridin-3ylthiazol-2-ylamino)phenyl]benzamide] the “Median progression-free survival (PFS)” value [1] was 5.5 months, the “Hazard Ratio” value [1] was 0.99 and the “Risk Benefit” value [1] was 1%. The “Median progression-free survival (PFS)” value [2] was 5.5 months, the “Hazard Ratio” value [2] was 1.00 and the “Risk Benefit” value [2] was 0%. The “Median progression-free survival (PFS)” value [3] was 5.5 months, the “Hazard Ratio” value [3] was 1.00 and the “Risk Benefit” value [3] was 0%. The “Median progression-free survival (PFS)” value [4] was 5.5 months, the “Hazard Ratio” value [4] was 1.00 and the “Risk Benefit” value [4] was 0%. For the same molecule, the “Median progression-free survival (PFS)” value [5] was 5.4 months, the “Hazard Ratio” value [5] was 1.00 and the “Risk Benefit” value [5] was 0%. The “Median progression-free survival (PFS)” value [6] was 4.9 months, the “Hazard Ratio” value [6] was 1.04 and the “Risk Benefit” value [6] was −4%. The “Median progression-free survival (PFS)” value [7] was 4.9 months, the “Hazard Ratio” value [7] was 1.07 and the “Risk Benefit” value [7] was −7%. The “Median progression-free survival (PFS)” value [8] was 4.9 months, the “Hazard Ratio” value [8] was 1.09 and the “Risk Benefit” value [8] was −9%. The “Median progression-free survival (PFS)” value [9] was 4.8 months, the “Hazard Ratio” value [9] was 1.20 and the “Risk Benefit” value [9] was −20%. The “Median progression-free survival (PFS)” value [10] was 4.1 months, the “Hazard Ratio” value [10] was 1.34 and the “Risk Benefit” value [10] was −34%. The “Median progression-free survival (PFS)” value [11] was 15 months, the “Hazard Ratio” value [11] was 0.28 and the “Risk Benefit” value [11] was 72%. The “Median progression-free survival (PFS)” value [12] was 9.0 months, the “Hazard Ratio” value [12] was 0.35 and the “Risk Benefit” value [12] was 65%. For the same molecule, the “Median progression-free survival (PFS)” value [13] was 7.0 months, the “Hazard Ratio” value [13] was 0.49 and the “Risk Benefit” value [13] was 51%. The “Median progression-free survival (PFS)” value [14] was 7.0 months, the “Hazard Ratio” value [14] was 0.54 and the “Risk Benefit” value [14] was 46%. The “Median progression-free survival (PFS)” value [15] was 6.9 months, the “Hazard Ratio” value [15] was 0.69 and the “Risk Benefit” value [15] was 31%. The “Median progression-free survival (PFS)” value [16] was 7.0 months, the “Hazard Ratio” value [16] was 0.65 and the “Risk Benefit” value [16] was 36%. The “Median progression-free survival (PFS)” value [17] was 7.0 months, the “Hazard Ratio” value [17] was 0.65 and the “Risk Benefit” value [17] was 35%. The “Median progression-free survival (PFS)” value [18] was 6.9 months, the “Hazard Ratio” value [18] was 0.65 and the “Risk Benefit” value [18] was 35%. For the same molecule, the “Median progression-free survival (PFS)” value [19] was 6.5 months, the “Hazard Ratio” value [19] was 0.75 and the “Risk Benefit” value [19] was 25%. For the same molecule, the “Median progression-free survival (PFS)” value [20] was 6.4 months, the “Hazard Ratio” value [20] was 0.81 and the “Risk Benefit” value [20] was 19%. For the same molecule, the “Median progression-free survival (PFS)” value (baseline ALP > 100 IU/L) was 5.4 months, the “Hazard Ratio” value (baseline ALP > 100 IU/L) was 1.02 and the “Median progression-free survival (PFS)” value (baseline ALP > 150 IU/L) was 4.9 months. The “Hazard Ratio” value (baseline ALP > 150 IU/L) was 1.14, the “Median progression-free survival (PFS)” value (baseline ALP > 200 IU/L) was 4.4 months and the “Hazard Ratio” value (baseline ALP > 200 IU/L) was 1.17. The “Median progression-free survival (PFS)” value [21] was 4.3 months, the “Hazard Ratio” value [21] was 1.19 and the “Median progression-free survival (PFS)” value [22] was 4.2 months. The “Hazard Ratio” value [22] was 1.18, the “Median progression-free survival (PFS)” value [23] was 4.2 months and the “Hazard Ratio” value [23] was 1.19. For the same molecule, the “Median progression-free survival (PFS)” value [24] was 4.2 months, the “Hazard Ratio” value [24] was 1.19 and the “Median progression-free survival (PFS)” value [25] was 4.2 months. The “Hazard Ratio” value [25] was 1.20, the “Median progression-free survival (PFS)” value (baseline ALP > 250 IU/L and H ≤ 18) was 3.4 months and the “Median progression-free survival (PFS)” value (baseline ALP > 250 IU/L and H ≤ 19) was 9.2 months. For the same molecule, the “Median progression-free survival (PFS)” value [26] was 13 months, the “Hazard Ratio” value [26] was 1.78 and the “Median progression-free survival (PFS)” value [27] was 8.3 months. For the same molecule, the “Hazard Ratio” value [27] was 0.99, the “Median progression-free survival (PFS)” value [28] was 8.3 months and the “Hazard Ratio” value [28] was 0.88. For the same molecule, the “Median progression-free survival (PFS)” value (baseline ALP > 250 IU/L) was 4.2 months, the “Hazard Ratio” value (baseline ALP > 250 IU/L) was 1.20 and the Hazard Ratio [29] was 0.46. It also gave a Risk Benefit [29] of 56%, a Hazard Ratio [30] of 0.46 and a Risk Benefit [30] of 55%. The Hazard Ratio [31] was “about 0.5”, the Risk Benefit [31] was “about 50%” and the “Median progression-free survival (PFS)” value (baseline ALP ≤ 100 IU/L) was 9.0 months. The “Hazard Ratio” value (baseline ALP ≤ 100 IU/L) was 0.53, the “Risk Benefit” value (baseline ALP ≤ 100 IU/L) was 47% and the “Risk Benefit” value (baseline ALP ≤ 100 IU/L, listed as masitinib) was 47%. The “Median progression-free survival (PFS)” value (baseline ALP ≤ 150 IU/L) was 6.9 months, the “Hazard Ratio” value (baseline ALP ≤ 150 IU/L) was 0.63 and the “Risk Benefit” value (baseline ALP ≤ 150 IU/L) was 37%. The “Median progression-free survival (PFS)” value (baseline ALP ≤ 200 IU/L) was 6.9 months, the “Hazard Ratio” value (baseline ALP ≤ 200 IU/L) was 0.73 and the “Risk Benefit” value (baseline ALP ≤ 200 IU/L) was 27%. For the same molecule, the “Median progression-free survival (PFS)” value [32] was 7.0 months, the “Hazard Ratio” value [32] was 0.62 and the “Risk Benefit” value [32] was 38%. For the same molecule, the “Median progression-free survival (PFS)” value [33] was 6.9 months, the “Hazard Ratio” value [33] was 0.63 and the “Risk Benefit” value [33] was 37%. For the same molecule, the “Median progression-free survival (PFS)” value [34] was 6.2 months, the “Hazard Ratio” value [34] was 0.87 and the “Median progression-free survival (PFS)” value [35] was 6.1 months. The “Hazard Ratio” value [35] was 0.86, the “Median progression-free survival (PFS)” value [36] was 5.8 months and the “Hazard Ratio” value [36] was 0.90. The “Median progression-free survival (PFS)” value [37] was 5.8 months, the “Hazard Ratio” value [37] was 0.94 and the “Median progression-free survival (PFS)” value [38] was 5.8 months. For the same molecule, the “Hazard Ratio” value [38] was 0.97, the “Median progression-free survival (PFS)” value [39] was 7.7 months and the “Hazard Ratio” value [39] was 0.52. The “Risk Benefit” value [39] was 48%, the “Median progression-free survival (PFS)” value [40] was 6.9 months and the “Hazard Ratio” value [40] was 0.66. For the same molecule, the “Risk Benefit” value [40] was 34%, the “Median progression-free survival (PFS)” value [41] was 7.0 months and the “Hazard Ratio” value [41] was 0.62. For the same molecule, the “Risk Benefit” value [41] was 38%, the “Median progression-free survival (PFS)” value (baseline ALP ≤ 250 IU/L) was 6.3 months and the “Hazard Ratio” value (baseline ALP ≤ 250 IU/L) was 0.79. The “Risk Benefit” value (baseline ALP ≤ 250 IU/L) was 21%.
